Test [1] addresses T1, ALDH3A1 (Homo sapiens, UniProt P30838).
T1 sequence (P30838 1-453): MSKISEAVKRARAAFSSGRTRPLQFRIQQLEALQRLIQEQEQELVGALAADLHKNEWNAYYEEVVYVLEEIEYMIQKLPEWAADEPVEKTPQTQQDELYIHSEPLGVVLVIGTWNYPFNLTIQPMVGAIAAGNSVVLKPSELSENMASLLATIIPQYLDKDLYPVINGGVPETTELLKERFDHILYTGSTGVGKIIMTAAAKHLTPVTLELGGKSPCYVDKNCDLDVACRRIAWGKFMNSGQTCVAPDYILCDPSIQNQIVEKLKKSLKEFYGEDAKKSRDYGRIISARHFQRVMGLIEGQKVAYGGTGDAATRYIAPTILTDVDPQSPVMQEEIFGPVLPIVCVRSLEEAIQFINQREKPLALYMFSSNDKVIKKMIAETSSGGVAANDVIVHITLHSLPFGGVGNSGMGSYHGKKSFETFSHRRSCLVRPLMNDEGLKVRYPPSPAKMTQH
The test can be described thus: ALDH3A1 isoform-specific enzyme assay. As to conditions: 15 minutes preincubation. In kind it is biochemical.

Test [2] has as its system UACC 903 cells. The test can be described thus: MTS cell viability assay, UACC 903. It is filed as cell-based, human. The following applies: 100 μmol/L, 72 hours.
In test [3] the test system is UACC 903 and 1205 Lu cells. The test can be described thus: ROS assay. In kind it is cell-based, human. As to conditions: 5 μmol/L, 24 hours.
For test [4], the system named is UACC 903 and 1205 Lu cells. As to the kind of experiment: Lipid peroxidation. It is filed as cell-based, human. As to conditions: 5 μmol/L, 24 hours.
Test [5] deals with ALDH1A1. As to conditions: cited from earlier work.
The test system of test [6] is ALDH2. As to conditions: read-out: IC50 for ALDH2; cited from earlier work.
Test [7] has as its system ALDH3A1. As to conditions: cited from earlier work.
The subject of test [8] is HNSCC xenograft models. As to conditions: 24 mg/kg/day, implantable osmotic mini pumps; cited from earlier work.
The target in test [9] is T2, ALDH1A1 (Homo sapiens, UniProt P00352).
T2 sequence (P00352 1-501): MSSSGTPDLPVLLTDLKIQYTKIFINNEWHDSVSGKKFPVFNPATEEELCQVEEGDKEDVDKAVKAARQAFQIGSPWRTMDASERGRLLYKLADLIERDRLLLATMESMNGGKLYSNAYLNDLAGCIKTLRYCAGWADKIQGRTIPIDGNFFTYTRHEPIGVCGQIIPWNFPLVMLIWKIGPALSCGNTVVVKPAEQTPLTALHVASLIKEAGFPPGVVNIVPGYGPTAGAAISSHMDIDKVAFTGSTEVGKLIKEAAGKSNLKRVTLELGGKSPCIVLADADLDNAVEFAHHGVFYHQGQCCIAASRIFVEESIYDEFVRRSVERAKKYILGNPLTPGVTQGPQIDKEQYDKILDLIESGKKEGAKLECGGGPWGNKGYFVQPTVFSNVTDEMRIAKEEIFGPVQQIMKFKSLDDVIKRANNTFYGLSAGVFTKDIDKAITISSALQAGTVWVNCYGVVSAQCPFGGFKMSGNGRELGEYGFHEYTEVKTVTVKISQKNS
The test can be described thus: ALDH1A1 isoform-specific enzyme assay. In kind it is biochemical. The following applies: 15 minutes preincubation.

The test system of test [10] is total cellular ALDH activity, UACC 903 cell lysates. As to the kind of experiment: Total cellular ALDH activity assay, UACC 903 cell lysates. As to conditions: 1 μmol/L, 15 minutes. It is filed as biochemical, human.
Test [11] has as its system total cellular ALDH activity, 1205 Lu cell lysates. The test can be described thus: Total cellular ALDH activity assay, 1205 Lu cell lysates. It is filed as biochemical, human. The following applies: 1 μmol/L, 15 minutes.
In test [12] the target is T3, ALDH2 (Homo sapiens, UniProt P05091).
T3 sequence (P05091 18-517): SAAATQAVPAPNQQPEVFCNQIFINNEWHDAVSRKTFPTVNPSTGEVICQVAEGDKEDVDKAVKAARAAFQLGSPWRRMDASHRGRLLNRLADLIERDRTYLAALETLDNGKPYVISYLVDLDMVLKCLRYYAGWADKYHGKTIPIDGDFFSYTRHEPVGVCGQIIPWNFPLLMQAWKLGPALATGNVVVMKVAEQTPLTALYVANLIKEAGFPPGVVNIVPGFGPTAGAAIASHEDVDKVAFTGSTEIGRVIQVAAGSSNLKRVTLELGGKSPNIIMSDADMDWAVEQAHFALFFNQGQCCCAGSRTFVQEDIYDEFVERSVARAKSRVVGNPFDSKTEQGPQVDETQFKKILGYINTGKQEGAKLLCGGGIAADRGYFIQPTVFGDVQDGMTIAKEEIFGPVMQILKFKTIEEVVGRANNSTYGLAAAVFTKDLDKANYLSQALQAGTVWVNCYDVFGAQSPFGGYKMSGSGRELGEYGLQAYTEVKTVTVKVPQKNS
The test can be described thus: ALDH2 isoform-specific enzyme assay. It is filed as biochemical. As to conditions: read-out: IC50s ALDH2; acetaldehyde substrate, 15 minutes preincubation.

Results on six compounds are retold here after publication PMC10763724 (Molecular cancer therapeutics, 2019).

Each structure is given as a SMILES string. Where two headings read alike, the source gives them in different places.

On to `CCN(CC)c1ccc(C=O)cc1` [DEAB], for which, in [1] (read-out: IC50s ALDH3A1, 4-nitrobenzaldehyde substrate), the IC50 came out at 15.1 µM. The “reduction of UACC 903 cell survival” value in [2] is reported as 30%. Besides, the ROS levels entry in test [3] was “significantly increased ROS levels”. Besides, the “lipid peroxidation and toxic aldehyde accumulation” value in [4] is “significantly increased lipid peroxidation and toxic aldehyde accumulation”.
As for `CN(C)CCC(=O)c1ccc(Br)cc1` [Aldi-6], the IC50 in [5] (read-out: IC50 for ALDH1A1) was 0.6 µM; in test [6] it was 0.8 µM; in [7] (read-out: IC50 for ALDH3A1), 1 µM. Further, the “tumor reduction in HNSCC xenograft models” value in test [8] is reported as 60%.
As for `CSC(=O)C#CC(C)(C)N(C)C` [DIMATE, 4-dimethylamino-4-methyl–pent-2-ynthioic acid-S-methylester], the IC50 in test [5] (read-out: IC50 toward ALDH1A1) and in [7] (read-out: IC50 toward ALDH3A1) was 5 µM each time.
Consider `O=C1Nc2ccccc2C1=O` [Isatin], for which the IC50 in test [9] (IC50s ALDH1A1, propionaldehyde substrate) was determined as 15.6 µM; in [1] (IC50s ALDH3A1, 4-nitrobenzaldehyde substrate), 5.05 µM. For the same compound, the “reduction of total cellular ALDH activity, UACC 903” value in test [10] was “ineffective”. Moreover, the “reduction of total cellular ALDH activity, 1205 Lu” value in [11] is recorded as “ineffective”.
Consider `Cc1nc2ccccc2n1S(=O)(=O)c1ccc(F)cc1` [CB7], for which the IC50 in test [9] (read-out: IC50s ALDH1A1, propionaldehyde substrate) was found to be 139 µM; in test [12], 144 µM.
`CCOC(=O)CSc1nc2c(sc3ccccc32)c(=O)n1CCCN1CCCC1` [CM037]: in test [3], the ROS levels entry was “significantly increased ROS levels”. The “lipid peroxidation and toxic aldehyde accumulation” value in test [4] is “significantly increased lipid peroxidation and toxic aldehyde accumulation”.
